Laboratory results published in publication PMC5733122, “Purification, Characterization, and Mode of Action of Pentocin JL-1, a Novel Bacteriocin Isolated from Lactobacillus pentosus, against Drug-Resistant Staphylococcus aureus” (BioMed Research International, 2017).

Assay: Thermal sensitivity, residual antibacterial activity
Type: physicochemical
Conditions: for Residual inhibitory activity (inhibition zone diameter, mm): 15 μg/mL in 0.05% (w/v) acetic acid, agar-well diffusion vs MRSA GIM 1.771, mean ± SD, triplicate; for Residual inhibitory activity (%): 15 μg/mL in 0.05% acetic acid, vs MRSA GIM 1.771, relative to control
Description: To determine thermal sensitivity, lyophilized purified pentocin JL-1 dissolved in 0.05% (w/v) acetic acid at 15 μg/mL was evaluated at different temperatures (−20°C, 4°C, 30°C, 60°C, and 100°C) for 1 h and also at the autoclaved condition (121°C at 15 psi for 15 min).
The residual antibacterial activities of the above samples were calculated using the agar-well diffusion test with MRSA GIM 1.771 as the indicator strain. […] Lyophilized pentocin JL-1 dissolved in 0.05% (w/v) acetic acid at 15 μg/mL with pH 5.5 was used as a control in all assays.

[1] = 121°C, 15 min (autoclaved, 15 psi)

VAKVAR [pentocin JL-1, novel bacteriocin produced by Lactobacillus pentosus JL-1, purified by four-step chromatography, molecular mass 2987.23 Da, cationic and hydrophobic peptide]
Residual inhibitory activity (inhibition zone diameter, mm) (4°C, 1 h): 23.8 ± 1.2 mm | Residual inhibitory activity (%) (4°C, 1 h): 99.58% | Residual inhibitory activity (inhibition zone diameter, mm) (30°C, 1 h): 23.9 ± 0.2 mm | Residual inhibitory activity (%) (30°C, 1 h): 100.00% | Residual inhibitory activity (inhibition zone diameter, mm) (60°C, 1 h): 23.6 ± 0.8 mm | Residual inhibitory activity (%) (60°C, 1 h): 98.74% | Residual inhibitory activity (inhibition zone diameter, mm) (100°C, 1 h): 22.6 ± 0.8 mm | Residual inhibitory activity (inhibition zone diameter, mm) [1]: 20.1 ± 0.9 mm | Residual inhibitory activity (%) [1]: 84.10^∗ % | Residual inhibitory activity (inhibition zone diameter, mm) (−20°C, 1 h): 22.2 ± 1.0 mm
